Measurements as given in publication PMC7766225, “Structure-Based Discovery and Bioactivity Evaluation of Novel Aurora-A Kinase Inhibitors as Anticancer Agents via Docking-Based Comparative Intermolecular Contacts Analysis (dbCICA)” (Molecules, 2020).
“And” between values parts separate entries of the source, which are not always exact repeats. Equal values may be shown once. Read-outs that look alike come from different tables or passages of the source.

Columns and labels:
[1] = test system: PANC1, PC-3, T-47D and MDA-MB-231 cancer cells; assay: MTT anti-proliferative assay, four cancer cell lines together; assay type: cell-based; conditions: Homo sapiens; 72 h of incubation; read-out: IC50 values against PANC1, PC-3, T-47D and MDA-MB-231 (range over cell lines)
Experimental: The human cell-lines triple negative breast adenocarcinoma MDA-MB-231, Pancreas adenocarcinoma PANC1, ductal breast carcinoma T-47D and fibroblasts were preserved and expanded in DMEM medium, while the prostate adenocarcinoma PC-3 cells were cultured in RPMI-1640 growth medium. All growth media were supplemented with 10% heat-inactivated fetal bovine serum (FBS). Cells were maintained under standard culture conditions at 37 °C, 5% CO2 in a humidified incubator. […] Cells were counted using conventional hemocytometer and trypan blue dye method. […] In 96-well coated flat bottom microplates, 100 μL cell suspension of PANC1 or T-47D cells were seeded at a density of 7000 cell/well, and 6000 cell/well for MDA-MB-231, PC-3, or fibroblasts, and incubated under the same conditions at 37 °C. After 24 h, each well was treated with the intended drug concentration diluted in 200 μL fresh media after removal of the old 100-μL media. […] Colorimetric absorbance (OD) was measured at 570 nm wavelength using 96-well plate reader (Tecan-Sunrise, Männedorf, Switzerland). […] The safety index for the compounds with specified IC50 values was evaluated via determining their IC50 values against normal Fibroblast cells. […] IC50 values were calculated using nonlinear regression of the dose–response curves using GraphPad Prism software 7.03.

PANC1 cells = assay: MTT cytotoxicity/anti-proliferation assay, PANC1; assay type: cell-based, human; conditions: for IC50: Panc1, 72 h; for inhibition at 25 µM / inhibition at 50 µM: PANC-1, 72 h; for inhibition at 25 µM: Panc1, 25 µM; for inhibition at 50 µM: Panc1, 50 µM
Experimental: (§1) The human cell-lines triple negative breast adenocarcinoma MDA-MB-231, Pancreas adenocarcinoma PANC1, ductal breast carcinoma T-47D and fibroblasts were preserved and expanded in DMEM medium, while the prostate adenocarcinoma PC-3 cells were cultured in RPMI-1640 growth medium. All growth media were supplemented with 10% heat-inactivated fetal bovine serum (FBS). Cells were maintained under standard culture conditions at 37 °C, 5% CO2 in a humidified incubator. At 80% confluency, cells were washed with 5 mL phosphate buffer saline (1X PBS), then incubated for 4 min with 2–3 mL Trypsin-EDTA 0.25% in order to obtain suspended cells and collect them in a known volume of fresh media for cell count. Cells were counted using conventional hemocytometer and trypan blue dye method.
(§2) The five potent hits that have shown anti-Aurora-A Kinase inhibition percentages above 51% at 10 μM upon conducting the kinase enzyme Inhibition assay (Table 5) were further validated using MTT cytotoxicity Assay. This assay includes 3-(4,5-Dimethylthiazol-2-yl)-2,5-diphenyl tetrazolium bromide (MTT) dye, which is a yellowish tetrazole reduced by viable cells into formazan purple color, which detects the normal mitochondrial role in viable cells. In 96-well coated flat bottom microplates, 100 μL cell suspension of PANC1 or T-47D cells were seeded at a density of 7000 cell/well, and 6000 cell/well for MDA-MB-231, PC-3, or fibroblasts, and incubated under the same conditions at 37 °C. After 24 h, each well was treated with the intended drug concentration diluted in 200 μL fresh media after removal of the old 100-μL media. After 72 h incubation, drug-containing media was aspirated and on each well 100 μL phenol-red free media and 15-μL MTT solution (5 mg/mL (wt/vol) PBS). After 3 h of dark incubation at 37 °C, MTT and media were carefully withdrawn from each well, and 200 μL/well DMSO were added. Colorimetric absorbance (OD) was measured at 570 nm wavelength using 96-well plate reader (Tecan-Sunrise, Männedorf, Switzerland).
(§3) The five compounds were prepared in a stock concentrate of 10 mM using cell culture grade DMSO to be utilized in MTT assay. The cytotoxicity of each compound was initially screened on cancer cell-lines at two concentrations: 50 μM and 25 μM in duplicates. […] The safety index for the compounds with specified IC50 values was evaluated via determining their IC50 values against normal Fibroblast cells. It is noteworthy to mention that DMSO concentration was constant on all the wells (i.e., (0.5% v/v or 1 μL/200 μL) per well), for the treated and the control ones. IC50 values were calculated using nonlinear regression of the dose–response curves using GraphPad Prism software 7.03.

Aurora-A kinase [2] = target: T1, Aurora-A kinase (Homo sapiens, UniProt O14965); assay: FRET-based Z'-LYTE kinase enzyme inhibition assay; assay type: biochemical; conditions: for IC50: nonlinear regression; for Hill Slope: dose-response curve, GraphPad Prism; for inhibition at 10 µM: read-out: % Inhibition at 10 µM
T1 construct: purchased Invitrogen (Carlsbad, CA, USA)
T1 sequence (O14965 1-403): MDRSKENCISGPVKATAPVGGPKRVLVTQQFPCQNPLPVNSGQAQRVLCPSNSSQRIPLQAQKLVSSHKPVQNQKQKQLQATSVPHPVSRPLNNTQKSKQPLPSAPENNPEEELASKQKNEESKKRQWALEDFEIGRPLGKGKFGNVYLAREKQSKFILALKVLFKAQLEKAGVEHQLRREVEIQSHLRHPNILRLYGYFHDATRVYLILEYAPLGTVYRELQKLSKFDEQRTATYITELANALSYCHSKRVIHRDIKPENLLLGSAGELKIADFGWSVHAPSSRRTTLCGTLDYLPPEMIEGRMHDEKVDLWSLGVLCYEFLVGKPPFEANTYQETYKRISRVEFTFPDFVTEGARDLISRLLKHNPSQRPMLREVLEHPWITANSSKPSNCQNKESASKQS
Experimental: This bioassay was conducted using Z′-LYTE® kinase assay (Invitrogen, Carlsbad, CA, USA) [68, 69]. This biochemical assay depends on fluorescence emission as detection method utilizing a synthetic fluorescence resonance energy transfer (FRET) peptide with two fluorophores: coumarin that work as donor and fluorescein as acceptor [69]. Each hit or compound was dissolved in DMSO to form 10 mM stock solution. Hits were screened at 10 μM concentration. The bioassay was performed in black 384-well plate. For each assay, 100 nL of tested compound stock solution (10 mM) was mixed with 2.4 μL kinase buffer, 5 μL (peptide substrate/Aurora-A Kinase) mixture, and 2.5 μL ATP solution.
The tests were conducted in duplicates.

T-47D cells = assay: MTT cytotoxicity/anti-proliferation assay, T-47D; assay type: cell-based; conditions: Homo sapiens, T47D, 72 h
Experimental: as §1, §2, §3

PC-3 cells = assay: MTT cytotoxicity/anti-proliferation assay, PC-3; assay type: cell-based; conditions: Homo sapiens; for IC50: PC-3, 72 h; for inhibition at 25 µM: PC-3, 25 µM; for inhibition at 25 µM / inhibition at 50 µM: 72 h; for inhibition at 50 µM: PC-3, 50 µM
Experimental: as §1, §2, §3

Fibroblasts = assay: MTT cytotoxicity assay on normal fibroblasts (safety index); assay type: cell-based; conditions: Homo sapiens, Fibroblast, 72 h
Experimental: as §1, §2, §3

MDA-MB-231 cells = assay: MTT cytotoxicity/anti-proliferation assay, MDA-MB-231; assay type: cell-based, human; conditions: Homo sapiens; for IC50: MDA-MB-231, 72 h; for inhibition at 25 µM: MDA-MB-231, 25 µM; for inhibition at 25 µM / inhibition at 50 µM: 72 h; for inhibition at 50 µM: MDA-MB-231, 50 µM
Experimental: as §1, §2, §3

Aurora-A kinase [3] = target: T1, Aurora-A kinase; conditions: Table S1, ChEMBL; ref Mortlock, et al., 2007; cited from earlier work

Hill Slope (Aurora-A kinase [2]) | inhibition at 10 µM (Aurora-A kinase [2]; 10 µM, duplicates, Z'-LYTE) | SMILES | IC50 (PANC1 cells; Homo sapiens, PANC-1, 72 h) | inhibition at 25 µM (PANC1 cells; Homo sapiens) | inhibition at 50 µM (PANC1 cells; Homo sapiens) | IC50 (Aurora-A kinase [2]; IC50, 0.1–100 μM, duplicates) | inhibition at 10 µM (Aurora-A kinase [2]) | inhibition at 25 µM (T-47D cells) | inhibition at 50 µM (T-47D cells) | IC50 (T-47D cells) | IC50 (PC-3 cells) | inhibition at 25 µM (PC-3 cells) | inhibition at 50 µM (PC-3 cells) | inhibition at 25 µM (Fibroblasts) | inhibition at 50 µM (Fibroblasts) | IC50 (Fibroblasts) | IC50 (MDA-MB-231 cells) | inhibition at 25 µM (MDA-MB-231 cells) | inhibition at 50 µM (MDA-MB-231 cells) | also measured
– | 51% | O=C(O)c1ccc(Nc2ccnc3cc(Cl)ccc23)cc1O [Hit 141] | > 50 µM | 11.4 ± 0.003% | 15.7 ± 0.02% | – | – | 21.11 ± 0.01% | 25.04 ± 0.02% | > 50 µM | – | – | – | – | – | – | > 50 µM | 2.9 ± 0.03% | 11.1 ± 0.05% | –
– | 55% | COc1cc(/C=N/c2ccc3ccccc3c2)ccc1O [Hit 112] | > 50 µM | 16 ± 0.02% | 22.5 ± 0.012% | – | – | 34.7 ± 0.012% | 48.11 ± 0.003% | > 50 µM | > 50 µM | 19.2% | 32.7% | 53.9 ± 0.018% | 54.3 ± 0.003% | 15.1 ± 3 µM | 17.9 ± 1.4 µM | 63.3 ± 0.021% | 74.7 ± 0.012% | –
1.77 | 75% | Cc1cc(O)c(/N=N/c2ccc(C(=O)O)cc2)cc1C [Hit 88] | > 50 µM | 11.3 ± 0.01% | 15.1 ± 0.006% | – | – | 26.5 ± 0.01% | 34.9 ± 0.013% | > 50 µM | – | – | – | – | – | – | > 50 µM | 21.1 ± 0.05% | 31.3 ± 0.06% | IC50 (Aurora-A kinase [2]; 0.1–100 μM, duplicates, read-out: IC50): 2.6 µM and 2.61 µM
7.6 | – | CCCC1N(Cc2ccc(OC)cc2)CCN1Cc1ccc(OC)cc1 [Hit 130] | > 50 µM | 20.3 ± 0.012% | 34.9 ± 0.017% | 5.89 µM and 5.9 µM | 86% | 25.5 ± 0.016% | 31.3 ± 0.008% | > 50 µM | – | – | – | – | – | – | > 50 µM | 22.9 ± 0.02% | 45.5 ± 0.05% | –
– | – | COc1cc2c(Nc3cc(CC(=O)Nc4cc(F)cc(F)c4)[nH]n3)ncnc2cc1OCCCN1CCC(CO)CC1 [Compound 6] | – | – | – | – | – | – | – | – | – | – | – | – | – | – | – | – | – | Ki (Aurora-A kinase [3]): 230 nM

SMILES | Hill Slope (Aurora-A kinase [2]) | inhibition at 10 µM (Aurora-A kinase [2]; 10 µM, duplicates, Z'-LYTE) | IC50 (PANC1 cells; Homo sapiens, PANC-1, 72 h) | inhibition at 25 µM (PANC1 cells; Homo sapiens) | inhibition at 50 µM (PANC1 cells; Homo sapiens) | IC50 (Aurora-A kinase [2]; IC50, 0.1–100 μM, duplicates) | inhibition at 10 µM (Aurora-A kinase [2]) | inhibition at 25 µM (T-47D cells) | inhibition at 50 µM (T-47D cells) | IC50 (T-47D cells) | IC50 (PC-3 cells) | inhibition at 25 µM (PC-3 cells) | inhibition at 50 µM (PC-3 cells) | inhibition at 25 µM (Fibroblasts) | inhibition at 50 µM (Fibroblasts) | IC50 (Fibroblasts) | IC50 (MDA-MB-231 cells) | inhibition at 25 µM (MDA-MB-231 cells) | inhibition at 50 µM (MDA-MB-231 cells) | also measured
COc1ccc(C(=O)C2=NON3O[C@@]23C(=O)c2ccc(OC)cc2)cc1 (some centres unmarked) [Hit 85] | 1.70 | – | 3.5 µM | 92.97 ± 0.004% | 94.1 ± 0.001% | 4.29 µM and 4.3 µM | 56% | 84.6 ± 0.002% | 86 ± 0.002% | 8.8 ± 0.74 µM | 8.2 ± 1.4 µM | 77 ± 0.007% | 87.3 ± 0.003% | 45.4 ± 0.05% | 83.4 ± 0.01% | 27.5 ± 1.5 µM | 11 ± 0.43 µM | 82.3 ± 0.006% | 87.7 ± 0.001% | IC50 [1]: 3.5 to 11 µM; IC50 (PANC1 cells): 3.54 ± 0.11 µM
